In article PMC6599048, “Polyhistidine facilitates direct membrane translocation of cell-penetrating peptides into cells” (Scientific Reports, 2019):
Primed or numbered codes have the meaning given here. Ends that are not written are not given here. FITC′ = fluorescein isothiocyanate label

How the values were obtained:
[1] = system: human A549 cells; assay: Cellular internalization of FITC-CPPs, fluorescent microscopy; format: cell-based; conditions: 80 μM, serum-free RPMI 1640, 37 °C, 1 h, Hoechst 33342 counterstain
Procedure: (§1) A549 cells were washed with phosphate buffered saline (PBS) and changed to serum-free RPMI 1640 medium for protein transduction experiments. The presence of 10% serum in the medium as the solvent caused a decrease in the uptake of CPPs or their complexes/conjugates. For cellular internalization, cells were seeded at a density of about 1 × 10^5 per 35-mm petri dish and then treated with serum-free medium (as a control), 80 μM of FITC isomer I (Sigma-Aldrich, St. Louis, MO, USA), FITC-nonCPP, FITC-L6, FITC-HL6, or FITC-HR9 at 37 °C for either 1 h or various time durations. The fluorescent tracker Hoechst 33342 was used to stain the nuclei of cells in blue, according to the manufacturer’s instructions (Thermo Fisher).
Bright-field and fluorescent images were captured using an AE31 inverted Epi-fluorescence microscope (Motic, Hong Kong, China) equipped with an IS1000 eyepiece (Tucsen, Fujian, China)[17]. Excitation filter modules of green and blue fluorescent protein (GFP, BFP) channels were set at 480/30 and 350/50 nm, respectively. Emission filter modules of GFP and BFP channels were set at 535/40 and 460/50 nm, respectively.

[2] = system: A549 cells; assay: Time course of cellular internalization of FITC-CPPs, flow cytometry; format: cell-based, human; conditions: 80 μM, 37 °C
Procedure: as §1
Cells were seeded at a density of about 2 × 10^5 per well in a 24-well plate. Following the protein transduction, cells were washed with PBS and harvested by adding 250 μl/well of 2.9 mM ethylenediaminetetraacetic acid (EDTA, pH 6.14)[22]. […] Digital measurements were analyzed using Cell Lab Quanta SC MPL software version 1.0 (Beckman Coulter).

[3] = system: HeLa cells; assay: MTT cytotoxicity assay, HeLa; conditions: 6 μM HL6, 0.3 μM QDs or complexes at ratio 20, 37 °C 30 min, then 24 h in complete medium, twelve independent experiments
Procedure: One hundred % DMSO and serum-free medium were used to treat cells for 30 min as positive and negative controls, respectively. HeLa cells were pretreated with 4 °C for 30 min or heparinases I, II, and III for 6 h. Cells were then treated with HL6/QD complexes (prepared at a ratio of 20 at 37 °C for 1 h) in the absence or presence of various endocytic inhibitors at 37 °C for 30 min. After treatment, cells were washed with PBS and then incubated in complete culture medium at 37 °C for 24 h. Eighty μl of serum-free medium and 20 μl of 3-(4,5-dimethylthiazol-2-yl)-2,5-diphenyltetrazolium bromide (MTT, Sigma-Aldrich; 5 mg/ml in PBS) solution were added to each well. After incubation at 37 °C for 30 min, […] formazan crystals converted only by metabolically living cells were dissolved in 300 μl of DMSO. The 24-well plates were then read using a SpectraMax M2 microplate reader with SoftMax Pro 6.3 microplate analysis software (Molecular Devices, Sunnyvale, CA, USA) at 540 nm wavelength.

[4] = system: A549 cells; assay: MTT cytotoxicity assay, A549; conditions: 6 μM HL6, 0.3 μM QDs or complexes at ratio 20, 37 °C 30 min, then 24 h in complete medium, twelve independent experiments

FITC-HL6: N-terminal fluorescein isothiocyanate (FITC) labeled HL6 ({FITC′}-CHHHHHRRWQWRHHHHHC; cysteine pairing not given here)
green fluorescence in cells (cellular internalization) [1]: green fluorescence
time by which green fluorescence was present ([2]; serum-free medium): ≤ 5 min
uptake relative to the FITC-L6 group ([2]; 60 min, serum-free medium, seven independent experiments in triplicates): 46.7 times

CHHHHHRRRRRRRRRHHHHHC [FITC-HR9, reference compound]
time by which green fluorescence was present ([2]; serum-free medium): ≤ 5 min
fraction of cells showing uptake, comparison between FITC-CPPs ([2]; all time points): higher with FITC-HR9-treated cells than FITC-HL6 and FITC-L6 at all time points

fluorescein isothiocyanate [FITC, reference compound]
green fluorescence in cells (cellular internalization) [1]: did not display green fluorescence

CHHHHHRRWQWRHHHHHC [HL6]
cytotoxicity (cell viability, MTT) [3]: No cytotoxicity was detected
cytotoxicity (cell viability, MTT) [4]: No cytotoxicity was detected
